Measured values taken from patent US11156599B2, “Assay for telomere length regulators” (The Johns Hopkins University, priority 2015, dated 2021).

How the values were obtained:
[1] = test system: de novo telomere addition on chr4 in SL13 cells; experiment: ADDIT assay (Addition of de novo initiated telomeres): modified STELA PCR and PacBio sequencing; type: cell-based, mouse; conditions: for de novo telomere addition compared to DMSO control: cells treated with DMSO, KU55933, Olaparib or both drugs
Description: To examine potential mammalian genes that regulate telomere length, an assay was developed that allows visualization of telomere addition in vivo, referred here as ADDIT (Addition of de novo initiated telomeres). In a chromosomally stable CASTEiJ mouse fibroblast cell line, chromosome 4 (chr4) was modified to generate an internal 480 bp telomere ‘seed’ sequence followed by a unique I-Sce1 endonuclease cut site (FIG. 1A). The length of seed sequence was based on an early study showing that 400 bp of telomere repeats can act as functional telomeres. Using Southern blot analysis, two independent HYG-positive clones were identified, clone 1L and 1M, with a single chr4 allele correctly modified (data not shown).
To better visualize the telomere addition on the I-Sce1 cut telomere seed, the single telomere length analysis (STELA) (Baird et al., 2004, Hum Mol Genet 13, 1515-1524), a PCR-based approach that can measure telomere lengths from individual chromosome ends was modified. The STELA assay employs annealing and ligation of a linker, ‘telorette’, with TTAGGG and a unique 20-nucleotide sequence to the G-rich 3′ telomere overhang followed by PCR of the telomere from a ‘teltail’ primer and primer in the HYG sequence on the engineered chromosome (FIG. 2). The PCR product lengths will be proportional to the telomere lengths at the cleaved chr4 allele. As a control, to amplify the un-extended cut chromosome in vitro, a different linker, ‘IScerette’ was designed, which has a 4-nt homology to the 4-nt 3′ overhang created by the I-Sce1 endonuclease at the cleavage site (FIG. 2). […] This in vitro IScerette PCR product serves as a marker for the base line length of the cut, unextended telomere seed sequence.
To further verify the longer STELA PCR products represent de novo telomere addition, the PCR products were sequenced with Pacific Biosciences (PACBIO®) next generation sequencing technology. The PACBIO® platform produces longer reads and is less GC bias compared to other next generation sequencing platforms. While errors were present in the sequence as expected, the telomere repeats were easily recognizable. All of the reads from the PACBIO® were filtered and only those that had unique HYG sequence followed by telomere sequence and the ‘teltail’ primer sequence were examined. This assures that only full length of STELA PCR products were analyzed. The reads were then aligned at the junction between the HYG sequence and the telomere repeats. Wild-type TTAGGG repeats were colored orange and variant telomere repeats were colored in darker orange (FIG. 3A). Some of these variants arose due to errors in sequencing. An error rate similar to the published error rate of PACBIO® sequencing, 10-15% was observed. The errors were uniformly distributed over the reference sequence, dominated by point insertions and deletions, as expected for PACBIO® sequencing. There were three regions of divergent sequence in the original construct that are evident as darker orange stripes in the aligned reads (see for reference, in vitro IScelrette). These are small variation in TTAGGG sequence in the original SL13 clone and serve as useful internal reference points.
The original STELA protocol used for human cells (Baird et al., 2004, Hum Mol Genet 13, 1515-1524) was modified to measure telomere lengths on the de novo end of chr4 in SL13 cells. Briefly, genomic DNA was extracted using Puregene Core Kit A ^TM (Qiagen). 4 μg of genomic DNA was digested with SphI (NEB) and later diluted to 10 ng/μl in water. For the in vitro IScerette sample, genomic DNA was digested with SphI and I-SceI (NEB) prior to ligation. The ligation was carried out at 35° C. for at least 12 hrs in a volume of 10 μl containing 10 ng of digested genomic DNA, 0.9 μM of telorette linkers (mixture of telorette 1 to 6) or IScerette linker and 0.5 U of T4 DNA ligase (NEB) in 1× T4 ligation buffer. […]

[2] = test system: SL13 cells; experiment: Telomere length by Southern blot in continuously growing SL13 cells; type: cell-based, mouse
Procedure: Given that ATM inhibitor KU55933 treatment prevents telomere elongation by telomerase overexpression, whether KU55933 treatment shortens telomere lengths in continuously growing cells was tested. […] The distinct non-telomeric bands served as useful loading controls, confirming all lanes were equally loaded (FIG. 9B, pixel position 1 and 3).
Cell lines such as 293FT and HCT116 were grown in DMEM (Gibco) supplemented with 1% Penicillin/Streptomycin/Glutamine (PSG) and 10% heat inactivated FBS (Invitrogen). SL13 cells were grown in DMEM (Gibco) supplemented with 1% PSG and 10% Tet system approved FBS (Clontech, #631107). Final concentration of 2 μg/ml of doxycycline was added in the media to induce I-Sce1 expression. Typically cells were collected post 48 hours of doxcycline treatment. […]
To measure telomere lengths by Southern blot, genomic DNA was extracted from cell pellets collected at different population doublings using the Puregene Core Kit A™ (Qiagen). […] Labeled probe was counted and 10^6 counts/ml (telomere probe) or 10^4 counts/ml (ladder) was denatured at 100° C. for 5 minutes and added to the pre-hybridization solution and hybridized overnight at 65° C. Membranes were washed 3× 15 minutes each in 6× SSC and 1% SDS at 65° C., and 3× 15 minutes each in 1× SSC and 1% SDS at 65° C. and exposed to a phosphorimager screen and detected on a Fuji phosphorimager. […]

SMILES | addition of de novo telomere repeats beyond the I-Sce1 site ([1]; 48 hrs doxycycline, 10 μM KU55933 or 5 nM siATM) | de novo telomere addition compared to DMSO control ([1]; different STELA primers) | telomere lengths at various population doublings ([2]; SL13 cells, 10 μM KU55933) | percentage of reads with telomere elongation ([1]; cells treated with Olaparib or both drugs, different STELA primers) | telomere length at various PDs ([2]; SL13 cells grown in the presence of Olaparib, Southern blot)
O=c1cc(-c2cccc3c2Sc2ccccc2S3)oc(N2CCOCC2)c1 [KU55933] | fewer and significantly shorter elongation products | less de novo telomere addition compared to DMSO control | gradually shortened with increasing cell PDs |  | 
O=C(c1cc(Cc2n[nH]c(=O)c3ccccc23)ccc1F)N1CCN(C(=O)C2CC2)CC1 [Olaparib] |  | significantly higher percentage of de novo telomere addition |  | 22.4% | gradually increased after 25 PDs
